Assay results: patent US11667730B2, “Oxime ester compound and photopolymerization initiator containing the same” (ADEKA CORPORATION, priority 2006, dated 2023)

Experiments:
[1] = Solubility of oxime ester compound in solvent; type: physicochemical; settings: solvent PGM-Ac: Propylene glycol-1-monomethyl ether-2-acetate
Experimental: When used as a photopolymerization initiator, they dissolve in propylene glycol-1-monomethyl ether-2-acetate or cyclohexanone as a solvent to a concentration of 1% by mass or higher, to satisfy the requirement as a photopolymerization initiator. The solubility measurement is preferably made at 20° to 30° C.

[2] = Solubility of oxime ester compound in solvent; type: physicochemical; settings: solvent CHN: cyclohexanone (footnote)

| Solubility PGM-Ac [1] [%] | Solubility CHN [2] [%] | Structure (SMILES) |
| --- | --- | --- |
| 4.1 | 18.9 | CCCCC(CC)Cn1c2ccc(/C(C)=N/OC(C)=O)cc2c2cc([N+](=O)[O-])ccc21 (stereo not shown) [Compound No. 1] |
| 20 | 14 | CCCCC(CC)Cn1c2ccc(/C(=N/OC(C)=O)c3ccc(OC(C)COC)cc3)cc2c2cc([N+](=O)[O-])ccc21 (stereo not shown) [Compound No. 54] |
| 1.4 | 9.2 | CCCCCCCCn1c2ccc(/C(C)=N/OC(C)=O)cc2c2cc([N+](=O)[O-])ccc21 [compound 2] |
| 0.12 | 0.80 | CCn1c2ccc(/C(C)=N/OC(C)=O)cc2c2cc([N+](=O)[O-])ccc21 [compound 3] |
| 0.38 | 2.4 | CCOCCn1c2ccc(/C(C)=N/OC(C)=O)cc2c2cc([N+](=O)[O-])ccc21 [compound 7] |
| 0.091 | 0.54 | COCC(C)OC(=O)Cn1c2ccc(/C(C)=N/OC(C)=O)cc2c2cc([N+](=O)[O-])ccc21 (stereo not shown) [compound 10] |
| 25 | 31 | COCC(C)OC(=O)CCCCCn1c2ccc(/C(C)=N/OC(C)=O)cc2c2cc([N+](=O)[O-])ccc21 (stereo not shown) [compound 12] |
| 0.16 | 3.7 | C=CC(=O)OCCn1c2ccc(/C(CCCCCCCCCCC)=N/OC(C)=O)cc2c2cc([N+](=O)[O-])ccc21 [compound 20] |
| 5.1 | 27 | CCn1c2ccc(/C(=N/OC(C)=O)c3ccc(OC(C)COC)cc3C)cc2c2cc([N+](=O)[O-])ccc21 (stereo not shown) [compound 33] |
| 0.4 | 7.2 | CCCCCCCCCCCCn1c2ccc(/C(C)=N/OC(C)=O)cc2c2cc([N+](=O)[O-])ccc21 [compound 45] |
| 0.5 | 5.0 | CCCCCCCCCCCCCCn1c2ccc(/C(C)=N/OC(C)=O)cc2c2cc([N+](=O)[O-])ccc21 [compound 46] |
| 0.3 | 5.3 | CCCCCCCCCCCCCCCCn1c2ccc(/C(C)=N/OC(C)=O)cc2c2cc([N+](=O)[O-])ccc21 [compound 47] |
| 5.0 | 42 | CCCCCCC/C(=N\OC(C)=O)c1ccc2c(c1)c1cc([N+](=O)[O-])ccc1n2CC(CC)CCCC (stereo not shown) [compound 48] |
| 6.0 | 45 | CCCCCCCCCCC/C(=N\OC(C)=O)c1ccc2c(c1)c1cc([N+](=O)[O-])ccc1n2CC(CC)CCCC (stereo not shown) [compound 50] |
| 1.5 | 13 | CCCCC(CC)Cn1c2ccc(/C(Cc3ccccc3)=N/OC(C)=O)cc2c2cc([N+](=O)[O-])ccc21 (stereo not shown) [compound 51] |
| 5.0 | 24 | CCCCC(CC)Cn1c2ccc(/C(=N/OC(C)=O)c3ccc(C(C)(C)C)cc3)cc2c2cc([N+](=O)[O-])ccc21 (stereo not shown) [compound 53] |
| 1.2 | 3.2 | CCCCC(CC)Cn1c2ccc(/C(=N/OC(C)=O)c3ccccc3OCCOC)cc2c2cc([N+](=O)[O-])ccc21 (stereo not shown) [compound 55] |
| 3.6 | 23 | CCCCC(CC)Cn1c2ccc(/C(=N/OC(C)=O)c3ccc(OCC)cc3OCC)cc2c2cc([N+](=O)[O-])ccc21 (stereo not shown) [compound 56] |
| 2.4 | 12 | CCn1c2ccc(/C(=N/OC(C)=O)c3ccc(OC(C)C)cc3OC(C)C)cc2c2cc([N+](=O)[O-])ccc21 [compound 57] |
| 1.2 | 7.6 | CCCCC(CC)Cn1c2ccc(/C(=N/OC(C)=O)c3ccc(F)cc3C)cc2c2cc([N+](=O)[O-])ccc21 (stereo not shown) [compound 58] |
